From patent US20130288989A1, “NEW USE OF CHEMICAL INGREDIENTS IN CYNOMORIUM AS PHYTOESTROGEN” (TIANJIN UNIVERSITY OF TRADITIONAL CHINESE MEDICINE, priority 2010, published 2013)
Entries after “also recorded” stand apart in the source; their conditions may differ.

Tests used:
Type in all cases: cell-based
[1] = target: T1, ERα (Homo sapiens, UniProt P03372); experiment: ERα luciferase reporter gene transcription activation in transfected Hela cells; details: for ERα (% of the control) mean ± S.D. / ERα (% of estradiol): Hela cells; for ERα (% of the control) mean ± S.D.: 24 h; for ERα (% of estradiol): estradiol at 10^−8M
T1 construct: expressed in transfected cells; host or cells: Hela cells (ER expression free)
T1 sequence (P03372 1-595): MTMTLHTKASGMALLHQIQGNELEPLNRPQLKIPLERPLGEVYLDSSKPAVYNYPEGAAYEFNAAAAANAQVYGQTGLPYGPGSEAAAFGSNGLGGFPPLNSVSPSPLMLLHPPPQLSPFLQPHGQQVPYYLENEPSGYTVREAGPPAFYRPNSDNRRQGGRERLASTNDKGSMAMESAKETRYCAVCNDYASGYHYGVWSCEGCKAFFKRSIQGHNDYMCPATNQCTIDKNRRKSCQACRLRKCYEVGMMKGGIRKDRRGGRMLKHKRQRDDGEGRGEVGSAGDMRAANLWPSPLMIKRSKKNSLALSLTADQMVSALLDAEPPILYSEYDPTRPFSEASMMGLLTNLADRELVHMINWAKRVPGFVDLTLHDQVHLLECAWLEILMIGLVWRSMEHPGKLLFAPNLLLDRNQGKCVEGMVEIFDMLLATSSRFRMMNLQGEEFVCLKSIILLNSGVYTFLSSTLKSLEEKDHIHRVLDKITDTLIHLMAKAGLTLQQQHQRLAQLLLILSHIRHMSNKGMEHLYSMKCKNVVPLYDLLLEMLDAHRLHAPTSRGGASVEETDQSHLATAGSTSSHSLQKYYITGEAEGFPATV
Excerpt: (§1) Actually, estrogens show their biological activity by regulating estrogen responding genetic transcription.
(§2) Formulation of sample solutions of catechin, (−)epicatechin-3-O-gallate, naringenin-4′-O-glucoside, phlorizin, emodin, chrysophanol (separately obtained from Example 1):
(§3) Catechin, (−)epicatechin-3-O-gallate, naringenin-4′-O-glucoside, phlorizin, emodin, chrysophanol in corresponding weights were separately weighed precisely, than added with DMSO for dissolution, the corresponding sample solution high dose groups (10 μM or 1 μM), were diluted in certain times to separately obtain low dose groups (1 μM to 0.001 μM).
(§4) Under condition of 37° C. and 5% CO2, Hela cells were cultured in phenol red-free high sugar DMEM culture medium containing 10% calf serum in incubator, the cells were spread in 60% density on 96-well plate when cell density was about 90%, each well was added with 150 ul of phenol red-free DMEM culture medium containing 10% serum, cultivation was performed overnight. To each well of the 96-well plate, 100 ul of serum-free DMEM culture medium and 0.4 μg plasmid (ptk-ERE-luc 2 μg, tk-Renila 1 μg, ERα or ERβ 1 μg) were used for transfection. After 6 h of transfection, each well was added with 150 ul of serum-free phenol red-free DMEM culture medium. Three wells were selected form each group, added with 10^−8M estradiol E2, and substance to be tested in different concentrations, 15 ul/well (sample 4-5 concentration gradient groups), continuously cultured under condition of 37° C., 5% CO2 for 24 h. After 24 h, each well was added with 80 μl of cell disruption solution, and the cells were subjected to freeze thawing once to be sufficiently disrupted. As for the cell lysis solution of each well, its activities to firefly luciferase and Renila luciferase were separately measured.

[2] = test system: estrogen receptor; experiment: Estrogen receptor activation test: overall estrogen activity and ERβ versus ERα comparison; details: for ERβ/ERα (both % of estradiol at 10^−8M): Hela cells; for estrogen activity / estrogen receptor activation (in words): estradiol as positive control; for selectivity to receptor subtypes (ERα vs ERβ): result in words
Description: as §1, §4

[3] = target: T2, ERβ (Homo sapiens, UniProt Q92731); experiment: ERβ luciferase reporter gene transcription activation in transfected Hela cells; details: for ERβ (% of the control) mean ± S.D. / ERβ (% of estradiol): Hela cells; for ERβ (% of the control) mean ± S.D.: 24 h; for ERβ (% of estradiol): estradiol at 10^−8M
T2 construct: expressed in transfected cells; host or cells: Hela cells (ER expression free)
Excerpt: as §1, §2, §3, §4

T2 sequence (Q92731 whole entry): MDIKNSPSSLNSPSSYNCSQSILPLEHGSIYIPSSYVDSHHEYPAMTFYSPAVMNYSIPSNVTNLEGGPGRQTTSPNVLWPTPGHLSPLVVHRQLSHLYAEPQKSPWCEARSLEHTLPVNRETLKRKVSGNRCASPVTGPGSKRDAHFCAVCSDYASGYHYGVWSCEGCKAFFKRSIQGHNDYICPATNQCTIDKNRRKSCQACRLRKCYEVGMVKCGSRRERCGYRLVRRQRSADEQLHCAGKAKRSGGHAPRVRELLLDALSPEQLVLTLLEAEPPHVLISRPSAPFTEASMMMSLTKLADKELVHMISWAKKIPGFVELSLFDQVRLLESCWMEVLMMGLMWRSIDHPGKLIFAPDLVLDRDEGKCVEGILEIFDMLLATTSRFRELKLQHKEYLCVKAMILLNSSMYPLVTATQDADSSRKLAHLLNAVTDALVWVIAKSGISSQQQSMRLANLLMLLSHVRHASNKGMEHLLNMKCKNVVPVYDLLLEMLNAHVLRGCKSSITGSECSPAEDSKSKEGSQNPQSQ

Row | Compound | ERα (% of the control) mean ± S.D. ([1]; 10^−5 M) | ERα (% of estradiol) ([1]; 10^−5 M) | ERα (% of the control) mean ± S.D. ([1]; 10^−6 M) | ERα (% of estradiol) ([1]; 10^−6 M) | ERα (% of the control) mean ± S.D. ([1]; 10^−7 M) | ERα (% of estradiol) ([1]; 10^−7 M) | ERα (% of the control) mean ± S.D. ([1]; 10^−8 M) | ERα (% of estradiol) ([1]; 10^−8 M) | concentration at which the transcriptional activity of ERα is agonized ([1]; luciferase reporter gene) | ERβ/ERα (both % of estradiol at 10^−8M) ([2]; sample 10^−6 M) | ERβ/ERα (both % of estradiol at 10^−8M) ([2]; sample 10^−7 M) | ERβ/ERα (both % of estradiol at 10^−8M) ([2]; sample 10^−8 M) | selectivity to receptor subtypes (ERα vs ERβ) [2] | ERβ (% of the control) mean ± S.D. ([3]; 10^−6 M) | ERβ (% of estradiol) ([3]; 10^−6 M) | ERβ (% of the control) mean ± S.D. ([3]; 10^−7 M) | ERβ (% of estradiol) ([3]; 10^−7 M) | ERβ (% of the control) mean ± S.D. ([3]; 10^−8 M) | ERβ (% of estradiol) ([3]; 10^−8 M) | concentration at which the transcriptional activity of ERβ is agonized ([3]; luciferase reporter gene) | also measured
1 | O=C(CCc1ccc(O)cc1)c1c(O)cc(O)cc1O[C@@H]1O[C@H](CO)[C@@H](O)[C@H](O)[C@H]1O [Phlorizin, phlorizin] | 137.71 ± 8.44 % of the control | (72.38) % of estradiol | 122.09 ± 11.33 % of the control | (64.17) % of estradiol | 118.40 ± 4.20 % of the control | (62.23) % of estradiol | 105.43 ± 13.57 % of the control | (55.41) % of estradiol | 10^−6-10^−5 M | 1.13 | 1.01 | 1.07 | no significant selectivity to receptor subtypes | 133.79 ± 5.45 % of the control | (72.50) % of estradiol | 116.14 ± 8.86 % of the control | (62.93) % of estradiol | 109.38 ± 8.72 % of the control | (59.27) % of estradiol | 10^−6-10^−5 M | ERβ/ERα (both % of estradiol at 10^−8M) ([2]; sample 10^−5 M): 1.11; estrogen activity / estrogen receptor activation (in words) [2]: show relevance to estrogen receptor activation; also recorded: potent activity of estrogen; ERβ (% of the control) mean ± S.D. ([3]; 10^−5 M): 147.95 ± 10.29 % of the control; ERβ (% of estradiol) ([3]; 10^−5 M): (80.17) % of estradiol
2 | O=C(O[C@@H]1Cc2c(O)cc(O)cc2O[C@@H]1c1ccc(O)c(O)c1)c1cc(O)c(O)c(O)c1 [(−)Epicatechin-3-O-gallate, (−)epicatechin-3-O-gallate] | 171.88 ± 22.57 % of the control | (80.79) % of estradiol | 192.40 ± 27.72 % of the control | (90.43) % of estradiol | 200.50 ± 13.72 % of the control | (94.24) % of estradiol | 170.00 ± 13.87 % of the control | (79.90) % of estradiol | 10^−8-10^−5 M | 0.90 | 0.93 | 0.97 | a higher selectivity to ERα than ERβ | 148.13 ± 4.22 % of the control | (81.56) % of estradiol | 159.55 ± 28.00 % of the control | (87.84) % of estradiol | 131.16 ± 15.95 % of the control | (77.72) % of estradiol | 10^−8-10^−5 M | ERα (% of the control) mean ± S.D. ([1]; 10^−9 M): 121.95 ± 10.76 % of the control; ERα (% of estradiol) ([1]; 10^−9 M): (57.32) % of estradiol; concentration of the highest ERα transcription activity ([1]; luciferase reporter gene): 10^−7 M; ERβ/ERα (both % of estradiol at 10^−8M) ([2]; sample 10^−5 M): 0.94; ERβ/ERα (both % of estradiol at 10^−8M) ([2]; sample 10^−9 M): 0.94; estrogen activity / estrogen receptor activation (in words) ([2]; listed as (−) epicatechin-3-O-gallate): show relevance to estrogen receptor activation; estrogen activity / estrogen receptor activation (in words) ([2]; listed as (−)epicatechin-3-O-gallate): potent activity of estrogen; ERβ (% of the control) mean ± S.D. ([3]; 10^−5 M): 137.80 ± 15.93 % of the control; ERβ (% of estradiol) ([3]; 10^−5 M): (75.87) % of estradiol; ERβ (% of the control) mean ± S.D. ([3]; 10^−9 M): 97.75 ± 17.66 % of the control; ERβ (% of estradiol) ([3]; 10^−9 M): (53.82) % of estradiol; concentration of the highest ERβ transcription activity ([3]; luciferase reporter gene): 10^−7 M
3 | Cc1cc(O)c2c(c1)C(=O)c1cc(O)cc(O)c1C2=O [Emodin, emodin] | – | – | 146.40 ± 18.07 % of the control | (64.01) % of estradiol | 109.96 ± 11.33 % of the control | (48.07) % of estradiol | 108.48 ± 27.45 % of the control | (47.43) % of estradiol | 10^−6 M | 1.03 | 1.00 | 1.00 | no receptor selectivity | 145.21 ± 8.06 % of the control | (65.63) % of estradiol | 106.60 ± 10.76 % of the control | (48.18) % of estradiol | 104.92 ± 9.08 % of the control | (47.42) % of estradiol | 10^−6 M | ERα (% of the control) mean ± S.D. ([1]; 10^−9 M): 101.27 ± 15.90 % of the control; ERα (% of estradiol) ([1]; 10^−9 M): (44.27) % of estradiol; ERβ/ERα (both % of estradiol at 10^−8M) ([2]; sample 10^−9 M): 1.07; estrogen activity / estrogen receptor activation (in words) [2]: show relevance to estrogen receptor activation; ERβ (% of the control) mean ± S.D. ([3]; 10^−9 M): 104.68 ± 13.96 % of the control; ERβ (% of estradiol) ([3]; 10^−9 M): 47.31 % of estradiol
